Measured values from EP3697386B1, “LIQUID COMPOSITIONS FOR PERORAL USE COMPRISING PHOSPHATIDYLGLYCEROL DERIVATIVES AND T[…] TREATING CARDIAC CHANN[…] BY PHARMACOLOGICAL AGENTS” (Signpath Pharma, Inc., priority 2017, dated 2019).

Target: hERG (Homo sapiens, UniProt Q12809)
Assay: Whole-cell patch-clamp of IKr hERG tail current: protective effect of lipids against hERG inhibition by Nilotinib
Conditions: for activity at 5 min: human, herg hek293 cells

Sequence of hERG (Q12809 whole entry): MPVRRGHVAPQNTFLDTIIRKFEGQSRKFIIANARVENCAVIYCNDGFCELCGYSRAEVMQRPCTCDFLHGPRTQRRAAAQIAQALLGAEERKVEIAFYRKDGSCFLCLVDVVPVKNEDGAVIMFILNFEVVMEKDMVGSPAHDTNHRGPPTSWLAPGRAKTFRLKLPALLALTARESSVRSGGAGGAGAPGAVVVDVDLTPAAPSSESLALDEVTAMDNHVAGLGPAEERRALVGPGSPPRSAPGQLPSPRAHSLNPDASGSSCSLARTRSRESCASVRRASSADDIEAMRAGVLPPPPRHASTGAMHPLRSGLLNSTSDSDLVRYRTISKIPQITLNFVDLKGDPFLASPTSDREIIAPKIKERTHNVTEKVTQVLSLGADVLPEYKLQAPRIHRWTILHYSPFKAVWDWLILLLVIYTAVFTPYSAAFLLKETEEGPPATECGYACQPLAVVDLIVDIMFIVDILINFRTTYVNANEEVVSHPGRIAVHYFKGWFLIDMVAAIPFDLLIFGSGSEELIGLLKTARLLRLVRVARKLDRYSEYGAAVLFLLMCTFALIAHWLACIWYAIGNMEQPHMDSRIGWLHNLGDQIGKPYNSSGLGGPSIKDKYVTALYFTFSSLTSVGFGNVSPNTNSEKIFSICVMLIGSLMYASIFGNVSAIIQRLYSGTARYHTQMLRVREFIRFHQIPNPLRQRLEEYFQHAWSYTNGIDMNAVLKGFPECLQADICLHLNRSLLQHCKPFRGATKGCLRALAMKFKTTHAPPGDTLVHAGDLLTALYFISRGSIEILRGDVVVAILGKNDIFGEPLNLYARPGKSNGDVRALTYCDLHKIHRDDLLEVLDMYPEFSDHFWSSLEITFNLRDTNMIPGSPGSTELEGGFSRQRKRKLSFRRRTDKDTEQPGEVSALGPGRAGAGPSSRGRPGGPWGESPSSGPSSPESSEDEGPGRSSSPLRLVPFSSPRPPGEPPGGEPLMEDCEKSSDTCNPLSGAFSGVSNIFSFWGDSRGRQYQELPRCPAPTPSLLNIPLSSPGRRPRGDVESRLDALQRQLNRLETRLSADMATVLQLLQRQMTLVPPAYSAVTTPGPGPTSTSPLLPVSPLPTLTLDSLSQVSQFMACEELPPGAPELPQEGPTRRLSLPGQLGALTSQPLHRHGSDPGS

Row | Compound | Normalized Current Density (lipid alone in aqueous solution, 5 minutes exposure, hERG-transfected HEK 293 cells, tail current at -55 mV, baseline = 1.000) | activity at 5 min [%] | activity at 5 min (Normalized Current Density, lipid alone in aqueous solution, 5 minutes exposure, hERG-transfected HEK 293 cells, tail current at -55 mV, baseline = 1.000) [%]
1 | 12-Mysteroyl-2-Hydroxy-sn-Glycero-3-[Phospho-rac-(glycerol)] [DMPG] | 0.800 |  | 
2 | CCCCCCCCCCCCCC(=O)OC[C@H](COP(=O)([O-])OCC[N+](C)(C)C)OC(=O)CCCCCCCCCCCCC [DMPC, 1,2-dimyristoyl-sn-glycero-3-phosphocholine] |  | 106 | 86.3
